Assay: Human HepG2 cell viability assay in 384 well format
Type: toxicity, cell-based
Set-up: dose 125 nL, time 70.5 hour; cytotoxicity at 70.5 h: concentration not given beside the values
Conditions: HepG2 cells, read-out: Inhibition

Row | SMILES | cytotoxicity at 70.5 h [%]
1 | Cc1ncsc1CCN(C)C1CCN(c2ncnc3[nH]cnc23)CC1 | -6.66
2 | CCCc1nnc(NC(C)c2ccc3c(c2)OCCO3)o1 (configuration not stated) | 19.1
3 | CCn1c(C)nnc1SCCNc1cc(COC)ncn1 | -22.7
4 | CCC(C(=O)N1CCN(S(=O)(=O)N2CCCC2)CC1)n1cccn1 (configuration not stated) | -3.42
5 | CN(Cc1ccc(-n2cccn2)cc1)c1cc(N)nc(N)n1 | 18.4
6 | CC(C)c1nc(CN(C)C(=O)Cn2nc3ccccc3n2)no1 | -10.4
7 | O=C(c1ccc2ccccc2c1)C1CCCN(C(=O)Cn2cnnn2)C1 (configuration not stated) | -3.65
8 | Cc1cnc(C)c(N2CCN(CC3CCCO3)CC2)n1 (configuration not stated) | -6.94
9 | O=C(O)[C@@H]1CN(C(=O)CCC(F)(F)F)C[C@H]1c1ccncc1 | -1.6
10 | CN(Cc1cnn(C)c1)c1nccc(-c2cc(C(=O)O)ccn2)n1 | 18.1
11 | CNC(C(=O)N1CCC(c2nccn2C(C)C)CC1)c1ccccc1 (configuration not stated) | -8.05
12 | CCCc1n[nH]c(=O)n1Cc1ccc(OC)cc1 | 12.2
13 | CCCN1CCC(CC(=O)N2CCC(C(O)c3nccn3C)CC2)CC1 (configuration not stated) | -11.6
14 | CCn1nc(CC(C)C)cc1C(=O)N1CCC2(CC1)[C@H](O)C[C@@H]2O | 1.5
15 | O=C(O)C1(Cc2cccc(Cl)c2)CCCN(c2ncnc3[nH]ccc23)C1 (configuration not stated) | -13
16 | Cc1cc(C)c2nc(C)cc(C(=O)NCc3csc(N(C)C)n3)c2c1 | 27.3
17 | CS(=O)(=O)N1C[C@H]2CNC[C@@]2(C(=O)NCCCc2ccccc2)C1 | -3.07
18 | COc1ccc(CN(CC2CCCO2)C(=O)CN2CCOC2=O)cc1 (configuration not stated) | -14.7
19 | CCn1c(Cn2cncn2)nnc1C1CCN(C[C@H]2[C@@H]3CNC[C@@H]32)CC1 | -20.4
20 | COC(=O)c1ccc(CNC(=O)CN2C[C@@H](NC(C)=O)[C@H](C(C)C)C2)o1 | -6.07
21 | NC(=O)Cn1ccnc1C1CCCN(Cc2ccccc2OC(F)F)C1 (configuration not stated) | -6.45

Row | SMILES | cytotoxicity at 70.5 h [%]
22 | CCc1nc(C)cc(N2CCCC(C(=O)c3ccc(OC)cc3C)C2)n1 (configuration not stated) | 6.28
23 | CCCN1C[C@H]2CC[C@@H]1CN(Cc1ccc(Cn3cccn3)cc1)C2 | -7.61
24 | CN1CCN(C(=O)N2CCC3(CCCN(C4CCOCC4)C3=O)C2)CC1 (configuration not stated) | -0.535
25 | CCc1ccc(CN2CCN(c3ncc(Cl)cn3)CC2)nc1 | -5.54
26 | COc1cccc(OCCc2cncc(C(N)=O)c2)c1 | -9.46
27 | O=C(O)[C@@H]1CN(Cc2cnc(C3CCCCC3)nc2)C[C@H]1C1CC1 | 10.9
28 | Cc1cc(C(=O)N2CCCCC2c2nc3cc(F)ccc3[nH]2)nn1C (configuration not stated) | -6.6
29 | Cc1ccc(C)c(CN2C[C@H]3CC[C@@H]2CN(C(=O)c2cccnc2)C3)c1 | 1.01
30 | CCN1CCC(CC(=O)N2CCn3cccc3C2c2cccnc2)CC1 (configuration not stated) | 28.5
31 | Cc1cccc(CN2C[C@@H](CN3CCCN(C)CC3)C[C@H](CO)C2)n1 | -5.2
32 | Cn1ccnc1CN1CC[C@@H]2[C@@H](CCC(=O)N2CCc2c[nH]cn2)C1 | 27.2
33 | O=C(c1cnc(Nc2ccccc2)nc1)N1CCC(O)(CO)CC1 | -6.53
34 | COCCCC1(C(=O)O)CCCN(C(=O)c2ccc(C(C)C)[nH]c2=O)C1 (configuration not stated) | -5.84
35 | CC(C)N1CCCn2nc(C(=O)NCCc3ccccn3)cc2C1 | -9.32
36 | Cc1cccc(C(=O)N2C[C@H]3CC[C@@H]2CN(S(=O)(=O)N(C)C)C3)n1 | -10.2
37 | CS(=O)(=O)Nc1ccc2c(c1)NC(=O)CC2c1cnn2cccnc12 (configuration not stated) | 17.5
38 | COc1ncc(C(=O)N(Cc2cnn(C)c2)C(C)C)cn1 | -7.11
39 | Cc1ccc(CN2C[C@H]3C(=O)N(CC4CC4)C[C@@]3(C(=O)O)C2)c(F)c1F | 9.58
40 | Cc1ncoc1C(=O)N1CCOC(CC2CCCCC2)C1 (configuration not stated) | -5.24
41 | CC[C@H]1COCCN1C(=O)c1cnc(N2CCN(C)CC2)nc1C | -8.1
42 | COCCN1CCC(CN(CC2CCCO2)C(=O)C2CCOCC2)CC1 (configuration not stated) | -5.33
